# Experimental data published in patent EP4711366A1, “PYRIMIDO MACROHETEROCYCLIC COMPOUND AS WEE1-YES DUAL-TARGET INHIBITOR AND USE THEREOF” (Mindrank AI Ltd., priority 2023, dated 2024).
# Legend:
# Wee1 kinase = Wee1 kinase (Homo sapiens, UniProt P30291); experiment: WEE1 protein kinase inhibitory activity assay (ADP-GLO luminescence); format: biochemical; conditions: for IC50: Wee1 10 ng/well, ATP 10 µM, 3 h, 37 °C; for inhibition of the Weel target (in words): summary statement on the assay results
# Chain of Wee1 kinase (P30291 whole entry): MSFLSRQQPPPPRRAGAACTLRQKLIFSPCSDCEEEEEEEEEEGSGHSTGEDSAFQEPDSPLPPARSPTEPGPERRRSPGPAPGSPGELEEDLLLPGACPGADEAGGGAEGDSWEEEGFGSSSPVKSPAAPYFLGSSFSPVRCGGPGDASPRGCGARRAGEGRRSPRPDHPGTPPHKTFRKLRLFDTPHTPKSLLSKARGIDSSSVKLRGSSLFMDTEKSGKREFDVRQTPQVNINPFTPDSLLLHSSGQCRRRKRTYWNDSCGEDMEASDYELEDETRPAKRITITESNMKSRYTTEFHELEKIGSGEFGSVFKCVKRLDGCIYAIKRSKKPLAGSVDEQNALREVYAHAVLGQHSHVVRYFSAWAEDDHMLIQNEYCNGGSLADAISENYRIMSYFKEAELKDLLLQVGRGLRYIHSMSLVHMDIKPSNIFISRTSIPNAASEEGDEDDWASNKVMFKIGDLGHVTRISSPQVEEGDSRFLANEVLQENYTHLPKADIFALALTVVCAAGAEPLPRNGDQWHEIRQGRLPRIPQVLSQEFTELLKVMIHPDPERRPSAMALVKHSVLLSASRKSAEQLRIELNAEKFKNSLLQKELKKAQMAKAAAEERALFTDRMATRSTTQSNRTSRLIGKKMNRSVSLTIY
# Procedure: The influence of the compound MRANK-106 of the present disclosure on the kinase activity of Weel was assessed using an in vitro kinase reaction system.
# Table 2-1. Information about reagents and consumables
# ① 1× kinase buffer: A 5× kinase buffer was diluted with ddH2O to make a 1× kinase buffer. Table 2-3. The reagent components added to the 1× kinase buffer
# ③ 5× enzyme working solution: The optimization of the enzyme concentration had been completed in previous work, and the concentration of the reagent used in the screening is shown in Table 2-4. A 5× enzyme working solution of the enzyme was formulated using the 1× kinase buffer.
# ④ Compound formulation: A 10 mM mother liquor was formulated using DMSO, aliquoted, and then stored at -20 °C. Immediately before use, the mother liquor was thawed, diluted with DMSO to 1 mM, serially diluted 4-fold to 10 concentration points, and then 40-fold diluted with the 1× kinase buffer to give a 2.5× working solution. Table 2-4. The experimental conditions for the kinase activity assay
# After the above reagents were formulated and equilibrated to room temperature, 4 µL of the diluted solution of the compound to be tested and 2 µL of the formulated enzyme solution were added to reaction wells. After shaking and centrifugation, the plate was incubated at room temperature for 15 min, and 4 µL of the ATP solution was then added to start a kinase reaction. After 3 h of reaction at 37 °C, 10 µL of an ADP-GLO reagent was added. After thorough mixing, the mixture was left to react at room temperature for 40 min, and 20 µL of a detection reagent was then added. After 30 min of reaction at room temperature, the luminescence signals were detected using a SpectraMax L instrument. Two independent duplicate assays were performed. The inhibition rate of each well was calculated based on all activity wells and background signal wells, with an average calculated for duplicate wells. Meanwhile, the inhibition rate was plotted using the professional graphing and analysis software PRISM 9.0, and the IC50 was calculated.
# The inhibition rates of the compounds to be tested against the kinase activity of Wee1 were calculated using the following formula: Inhibition rate% = (Lumvehicle−Lumcompound)/(Lumvehicle−Lumblank) × 100% [formula] • Lumcompound: the luminescence of the sample treatment groups • Lumvehicle: the luminescence of the solvent control group • Lumblank: the luminescence of the blank group
# YES1 kinase = YES1 kinase (Homo sapiens, UniProt P07947); experiment: YES1 protein kinase inhibitory activity assay (HTRF); format: biochemical; conditions: for IC50: HTRF, YES1 kinase, ATP 10 µM; for inhibition of the Yes target (in words): summary statement on the assay results
# Chain of YES1 kinase (P07947 whole entry): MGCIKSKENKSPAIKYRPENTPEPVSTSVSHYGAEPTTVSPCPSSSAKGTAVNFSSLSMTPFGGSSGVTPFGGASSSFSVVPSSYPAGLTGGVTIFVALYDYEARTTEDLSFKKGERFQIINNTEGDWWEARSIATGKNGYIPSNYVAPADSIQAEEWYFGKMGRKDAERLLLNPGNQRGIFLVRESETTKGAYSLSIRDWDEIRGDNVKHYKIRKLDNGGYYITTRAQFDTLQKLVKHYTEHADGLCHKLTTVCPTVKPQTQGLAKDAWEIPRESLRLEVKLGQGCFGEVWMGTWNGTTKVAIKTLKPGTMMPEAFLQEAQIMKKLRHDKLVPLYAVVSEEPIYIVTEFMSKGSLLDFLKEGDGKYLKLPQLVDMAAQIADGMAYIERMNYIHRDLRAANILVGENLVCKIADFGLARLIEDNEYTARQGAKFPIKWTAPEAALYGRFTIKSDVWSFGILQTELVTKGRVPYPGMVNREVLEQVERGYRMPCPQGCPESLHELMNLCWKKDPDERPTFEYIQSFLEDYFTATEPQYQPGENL
# Procedure: In this experiment, the capability of the compound MRANK-106 of the present disclosure to inhibit kinase activity was assessed by an HTRF method using a drug screening system based on the YES1 kinase.
# Table 3-1. Information about reagents and consumables
# The enzymatic activity conditions and HTRF system formulation are shown in Table 3-3; the experimental conditions for the kinase activity assay are shown in Table 3-4. Table 3-3. HTRF system formulation
# Table 3-4. The experimental conditions for the kinase activity assay
# The test compound MRANK-106 was dissolved in DMSO, and the solution was vortexed and shaken for thorough mixing. The solution was serially diluted 3-fold with DMSO, with the initial concentration being 503 nM.
# ① A 2× ATP/substrate solution and a 2× kinase solution were formulated using a kinase reaction buffer.
# ② 50 nL of the compound dilution was transferred to a 384 detection plate using Echo 655. After centrifugation, 2.5 µL of a 2× kinase solution was added to the 384 detection plate. The plate was centrifuged at 1000 rpm for 1 min and incubated at 25 °C for 10 min.
# ② 2.5 µL of the 2× substrate and ATP solution was added to the 384 detection plate, and the plate was centrifuged at 1000 rpm for 1 min and incubated at 25 °C for 60 min.
# ④ A 2× XL665 and antibody detection reagent was formulated using a detection buffer.
# ⑤ 5 µL of a kinase detection reagent was added to the detection plate, and the plate was incubated at 25 °C. The plate was centrifuged at 1000 rpm for 1 min and incubated at 25 °C for 1 h.
# ⑥ The fluorescence signals at 620 nm (Cryptate) and 665 nm (XL665) were read using a BMG high-throughput drug-screening multi-mode microplate reader.
# With the reading of the negative control set as an inhibition rate of 0% and the reading of the positive control set as an inhibition rate of 100%, the inhibition rate of each test solution was calculated using the following formula: [formula] • Datapositive control: the average of the positive control well values • Datanegative control : the average of the negative control well values
# The IC50 (half maximal inhibitory concentration) of the compound was obtained using the following nonlinear fitting formulas: Y = Bottom + (Top−Bottom)/(1+10^(∧)((LogIC50−X)*HillSlope)) [formula] • X: the log value of the compound concentration • Y: the inhibition rate (% inh) of the compound
# The Z' factor calculation equation: Z′ = 1−3(SDmin+SDmax)/(AVEmax−AVEmin) [formula] where: • Min is the positive control Data value, and Max is the negative control DMSO Data value; • SD stands for standard deviation, and AVE stands for average.
Compound,IC50 (Wee1 kinase),IC50 (YES1 kinase),inhibition of the Weel target (in words) (Wee1 kinase),inhibition of the Yes target (in words) (YES1 kinase)
"Cc1cc(Nc2ncc3c(=O)n4n(c3n2)-c2cccc(n2)C(C)(O)CCC=CC4)ccc1NC1CC2CCC(C1)N2C (single isomer, unassigned) [Compound 225A]",20.4 nM,,,
"Cc1cc(Nc2ncc3c(=O)n4n(c3n2)-c2cccc(n2)[C@@](C)(O)CCCCC4)ccc1OC1CCN(C)CC1 [Compound 29, (S)-12-hydroxy-12-methyl-2-((3-methyl-4-((1-methylpiperidin-4-yl)oxy)phenyl)amino)-7,8,9,10,11,12-hexahydro-5H-13,17-(azeno)pyrimido[4',5':3,4]pyrazolo[1,2-a][1,2]diazacyclotridecin-5-one]",67 nM,,,
"Cc1cc(Nc2ncc3c(=O)n4n(c3n2)-c2cccc(n2)[C@@](C)(O)CCC=CC4)ccc1OC1CCN(C)CC1 [Compound 134, (S,Z)-12-hydroxy-12-methyl-2-((3-methyl-4-((1-methylpiperidin-4-yl)oxy)phenyl)amino)-7,10,11,12-tetrahydro-5H-13,17-(azeno)pyrimido[4',5':3,4]pyrazolo[1,2-a][1,2]diazacyclotridecin-5-one]",21 nM,68.9 nM,strongly inhibited,strongly inhibited
"CCOP1(=O)CCN(c2ccc(Nc3ncc4c(=O)n5n(c4n3)-c3cccc(n3)C(C)(O)CCC=CC5)cc2F)CC1 (stereo not drawn) [Compound 180, (Z)-2-((4-(4-ethoxy-4-oxido-1,4-azaphosphinan-1-yl)-3-fluorophenyl)amino)-12-hydroxy-12-methyl-7,10,11,12-tetrahydro-5H-13,17-(azeno)pyrimido[4',5':3,4]pyrazolo[1,2-a][1,2]diazacyclotridecin-5-one]",,52.5 nM,strongly inhibited,strongly inhibited
"CCOP1(=O)CCN(c2ccc(Nc3ncc4c(=O)n5n(c4n3)-c3cccc(n3)C(C)(O)CCC=CC5)cc2)CC1 (stereo not drawn) [Compound 181, (Z)-2-((4-(4-ethoxy-4-oxido-1,4-azaphosphinan-1-yl)phenyl)amino)-12-hydroxy-12-methyl-7,10,11,12-tetrahydro-5H-13,17-(azeno)pyrimido[4',5':3,4]pyrazolo[1,2-a][1,2]diazacyclotridecin-5-one]",33.2 nM,117 nM,,
"Cc1cc(Nc2ncc3c(=O)n4n(c3n2)-c2cccc(n2)C(C)(O)CC/C=C\C4)ccc1O[C@@H]1CCN(C)C1 (stereo partly drawn) [Compound 183, (R,Z)-12-hydroxy-12-methyl-2-((3-methyl-4-(((R)-1-methylpyrrolidin-3-yl)oxy)phenyl)amino)-7,10,11,12-tetrahydro-5H-13,17-(azeno)pyrimido[4',5':3,4]pyrazolo[1,2-a][1,2]diazacyclotridecin-5-one]",16.1 nM,,,
"CN1CCN(C(=O)c2ccc(Nc3ncc4c(=O)n5n(c4n3)-c3cccc(n3)C(C)(O)CC/C=C\C5)cc2)CC1 [Compound 185, (R,Z)-12-hydroxy-12-methyl-2-((4-(4-methylpiperazine-1-carbonyl)phenyl)amino)-7,10,11,12-tetrahydro-5H-13,17-(azeno)pyrimido[4',5':3,4]pyrazolo[1,2-a][1,2]diazacyclotridecin-5-one]",,129 nM,,
"Cc1cc(Nc2ncc3c(=O)n4n(c3n2)-c2cccc(n2)C(C)(O)CC/C=C\C4)ccc1O[C@H]1CCN(C)C1 (stereo partly drawn) [Compound 186, (R,Z)-12-hydroxy-12-methyl-2-((3-methyl-4-(((S)-1-methylpyrrolidin-3-yl)oxy)phenyl)amino)-7,10,11,12-tetrahydro-5H-13,17-(azeno)pyrimido[4',5':3,4]pyrazolo[1,2-a][1,2]diazacyclotridecin-5-one]",18.7 nM,,,
"Cc1cc(Nc2ncc3c(=O)n4n(c3n2)-c2cccc(n2)C(C)(O)CCC=CC4)ccc1CN1CCN(C)CC1=O (stereo not drawn) [Compound 199, (Z)-12-hydroxy-12-methyl-2-((3-methyl-4-((4-methyl-2-oxopiperazin-1-yl)methyl)phenyl)amino)-7,10,11,12-tetrahydro-5H-13,17-(azeno)pyrimido[4',5':3,4]pyrazolo[1,2-a][1,2]diazacyclotridecin-5-one]",,59.1 nM,strongly inhibited,strongly inhibited
"Cc1cc(Nc2ncc3c(=O)n4n(c3n2)-c2cccc(n2)C(C)(O)CCC=CC4)ccc1OC1CCN(CC(F)(F)F)CC1 (stereo not drawn) [Compound 206, (Z)-12-hydroxy-12-methyl-2-((3-methyl-4-((1-(2,2,2-trifluoroethyl)piperidin-4-yl)oxy)phenyl)amino)-7,10,11,12-tetrahydro-5H-13,17-(azeno)pyrimido[4',5':3,4]pyrazolo[1,2-a][1,2]diazacyclotridecin-5-one]",,130 nM,,
"CN1CC2CC(Oc3ccc(Nc4ncc5c(=O)n6n(c5n4)-c4cccc(n4)C(C)(O)CCC=CC6)cc3C(F)(F)F)CC2C1 (stereo not drawn) [Compound 223, (Z)-12-hydroxy-12-methyl-2-((4-((2-methyloctahydrocyclopenta[c]pyrrol-5-yl)oxy)-3-(trifluoromethyl)phenyl)amino)-7,10,11,12-tetrahydro-5H-13,17-(azeno)pyrimido[4',5':3,4]pyrazolo[1,2-a][1,2]diazacyclotridecin-5-one]",18.7 nM,21.8 nM,strongly inhibited,strongly inhibited
CN(C)S(=O)(=O)c1ccc2c(c1)/C(=C/c1cc3c([nH]1)CCCC3)C(=O)N2 [SU6656],,43 nM,,

# Second part, the compound after the results:
IC50 (Wee1 kinase),IC50 (YES1 kinase),inhibition of the Weel target (in words) (Wee1 kinase),inhibition of the Yes target (in words) (YES1 kinase),Compound
5.4 nM,346 nM,,,"[2H]C([2H])([2H])N1CCC(Oc2ccc(Nc3ncc4c(=O)n5n(c4n3)-c3cccc(n3)[C@@](C)(O)CCC=CC5)cc2C)CC1 (single isomer, unassigned) [Compound 171B]"
13.1 nM,,,,"Cc1cc(Nc2ncc3c(=O)n4n(c3n2)-c2cccc(n2)C(C)(O)CC/C=C\C4)ccc1CN1CCN(C)CC1 (single isomer, unassigned) [Compound 219A]"
12.8 nM,,,,"Cc1cc(Nc2ncc3c(=O)n4n(c3n2)-c2cccc(n2)C(C)(O)CC/C=C\C4)ccc1OC1CC2CN(C)CC2C1 (single isomer, unassigned) [Compound 224A]"
